33 compounds from patent US20130303509A1, “NAMPT INHIBITORS” (AbbVie Inc., priority 2012, published 2013) can be followed below.

Each structure is given as a SMILES string.

This test relates to PC3 cells. In words: NAMPT Cell Proliferation Assay. Type of test: cell-based. The following applies: Homo sapiens, PC-3, 120 h, 5 days incubation, cell viability by Cell Titer Glo. The method, then: NAMPT Cell Proliferation Assay
PC3 cells were seeded in 96-well black plates (Corning #3904) at 500 cells)Owell in 90 µl of RPMI media containing 10% heat-inactivated FBS and incubated overnight at 37° C. and 5% CO2 to allow cells to attach to wells. The following day, test compounds were serially diluted in neat DMSO to 1000× final concentrations prior to dilution with RPMI media to 10× and 1% DMSO. […] of the 10× compounds were then transferred to wells containing cells to produce a dose response of 10-fold dilutions from […] to 1×10^−[…]. Cells were incubated for 5 days at 37° C. and 5% CO2, then cell viability was measured using Cell Titer Glo reagent (Promega #G7571). Percent inhibition values were calculated and fitted to a sigmoidal dose response curves using Assay Explorer software to determine IC50s.
A general note: In ATP-based viability assays light output follows the ATP content of the culture.
As usually defined, the IC50 is the concentration needed to halve the response being measured. A lower IC50 goes with higher potency. The compound `CC[C@H](C)C(=O)N1CCC(Oc2ccc(NC(=O)C3CN(c4cccnc4)C3)cc2)CC1` [Example 32, N-[4-({1-[(2S)-2-methylbutanoyl]piperidin-4-yl}oxy)phenyl]-1-(pyridin-3-yl)azetidine-3-carboxamide] showed a half-maximal inhibitory concentration (IC50) of 6.54 nM.
As for `O=C(Nc1ccc(OC2CCN(C(=O)[C@@H]3CCCO3)CC2)cc1)C1CN(c2cccnc2)C1` [Example 33, 1-(pyridin-3-yl)-N-[4-({1-[(2S)-tetrahydrofuran-2-ylcarbonyl]piperidin-4-yl}oxy)phenyl]azetidine-3-carboxamide], the IC50 was 3.66 nM.
For `CCCCC(=O)N1CCC(Oc2ccc(NC(=O)C3CN(c4cccnc4)C3)cc2)CC1` [Example 34, N-{4-[(1-pentanoylpiperidin-4-yl)oxy]phenyl}-1-(pyridin-3-yl)azetidine-3-carboxamide], half-maximal inhibition (IC50) was put at 6.8 nM.
`CC1CC1C(=O)N1CCC(Oc2ccc(NC(=O)C3CN(c4cccnc4)C3)cc2)CC1` (stereo not drawn) [Example 35, N-[4-({1-[(2-methylcyclopropyl)carbonyl]piperidin-4-yl}oxy)phenyl]-1-(pyridin-3-yl)azetidine-3-carboxamide] registered an IC50 of 6.92 nM.
Compound `O=C(Nc1ccc(OC2CCN(C(=O)CC3C[C@@H]4CC[C@H]3C4)CC2)cc1)C1CN(c2cccnc2)C1` (stereo partly drawn) [Example 36, N-[4-({1-[(1S,4R)-bicyclo[2.2.1]hept-2-ylacetyl]piperidin-4-yl}oxy)phenyl]-1-(pyridin-3-yl)azetidine-3-carboxamide] showed an IC50 of 9.66 nM.
To `CC(C)CCC(=O)N1CCC(Oc2ccc(NC(=O)C3CN(c4cccnc4)C3)cc2)CC1` [Example 37, N-(4-{[1-(4-methylpentanoyl)piperidin-4-yl]oxy}phenyl)-1-(pyridin-3-yl)azetidine-3-carboxamide] belongs 6.48 nM.
In the case of `CCC(C)CC(=O)N1CCC(Oc2ccc(NC(=O)C3CN(c4cccnc4)C3)cc2)CC1` (stereo not drawn) [Example 38, N-(4-{[1-(3-methylpentanoyl)piperidin-4-yl]oxy}phenyl)-1-(pyridin-3-yl)azetidine-3-carboxamide] it was 6.39 nM; in that of `CCOCCC(=O)N1CCC(Oc2ccc(NC(=O)C3CN(c4cccnc4)C3)cc2)CC1` [Example 39, N-(4-{[1-(3-ethoxypropanoyl)piperidin-4-yl]oxy}phenyl)-1-(pyridin-3-yl)azetidine-3-carboxamide], 7.38 nM; in that of `CCC(C)(C)C(=O)N1CCC(Oc2ccc(NC(=O)C3CN(c4cccnc4)C3)cc2)CC1` [Example 40, N-(4-{[1-(2,2-dimethylbutanoyl)piperidin-4-yl]oxy}phenyl)-1-(pyridin-3-yl)azetidine-3-carboxamide], 2.17 nM.
In the case of `CC(C)(C)CC(=O)N1CCC(Oc2ccc(NC(=O)C3CN(c4cccnc4)C3)cc2)CC1` [Example 41, N-(4-{[1-(3,3-dimethylbutanoyl)piperidin-4-yl]oxy}phenyl)-1-(pyridin-3-yl)azetidine-3-carboxamide] it was 3.76 nM; in that of `CC(C)(C)C(=O)N1CCC(Oc2ccc(NC(=O)C3CN(c4cccnc4)C3)cc2)CC1` [Example 42, N-(4-{[1-(2,2-dimethylpropanoyl)piperidin-4-yl]oxy}phenyl)-1-(pyridin-3-yl)azetidine-3-carboxamide], 64.6 nM.
As to `CCCC(=O)N1CCC(Oc2ccc(NC(=O)C3CN(c4cccnc4)C3)cc2)CC1` [Example 43, N-{4-[(1-butanoylpiperidin-4-yl)oxy]phenyl}-1-(pyridin-3-yl)azetidine-3-carboxamide], the IC50 is 6.88 nM.
As to `CCOCC(=O)N1CCC(Oc2ccc(NC(=O)C3CN(c4cccnc4)C3)cc2)CC1` [Example 44, N-(4-{[1-(ethoxyacetyl)piperidin-4-yl]oxy}phenyl)-1-(pyridin-3-yl)azetidine-3-carboxamide], the IC50 was 5.47 nM.
The compound `CC(C)CC(=O)N1CCC(Oc2ccc(NC(=O)C3CN(c4cccnc4)C3)cc2)CC1` [Example 45, N-(4-{[1-(3-methylbutanoyl)piperidin-4-yl]oxy}phenyl)-1-(pyridin-3-yl)azetidine-3-carboxamide] had an IC50 of 6.77 nM.
With `CC(C)C(=O)N1CCC(Oc2ccc(NC(=O)C3CN(c4cccnc4)C3)cc2)CC1` [Example 46, N-(4-{[1-(2-methylpropanoyl)piperidin-4-yl]oxy}phenyl)-1-(pyridin-3-yl)azetidine-3-carboxamide], the midpoint of inhibition, the IC50, lay at 3.01 nM.
Consider `CC(=O)N[C@@H](CC(C)C)C(=O)N1CCC(Oc2ccc(NC(=O)C3CN(c4cccnc4)C3)cc2)CC1` [Example 47, N-(4-{[1-(N-acetyl-L-leucyl)piperidin-4-yl]oxy}phenyl)-1-(pyridin-3-yl)azetidine-3-carboxamide], for which inhibition was half-maximal at 3.35 nM (IC50).
`COCCOCC(=O)N1CCC(Oc2ccc(NC(=O)C3CN(c4cccnc4)C3)cc2)CC1` [Example 48, N-[4-({1-[(2-methoxyethoxy)acetyl]piperidin-4-yl}oxy)phenyl]-1-(pyridin-3-yl)azetidine-3-carboxamide] showed a half-maximal inhibitory concentration (IC50) of 2.88 nM.
To `O=C(Nc1ccc(OC2CCN(C(=O)C3CCCCC3)CC2)cc1)C1CN(c2cccnc2)C1` [Example 49, N-(4-{[1-(cyclohexylcarbonyl)piperidin-4-yl]oxy}phenyl)-1-(pyridin-3-yl)azetidine-3-carboxamide] belongs 6.96 nM.
To `O=C(Nc1ccc(OC2CCN(C(=O)CC3CCCCC3)CC2)cc1)C1CN(c2cccnc2)C1` [Example 50, N-(4-{[1-(cyclohexylacetyl)piperidin-4-yl]oxy}phenyl)-1-(pyridin-3-yl)azetidine-3-carboxamide] belongs 8.95 nM; to `O=C(Nc1ccc(OC2CCN(C(=O)CCC(F)(F)F)CC2)cc1)C1CN(c2cccnc2)C1` [Example 51, 1-(pyridin-3-yl)-N-(4-{[1-(4,4,4-trifluorobutanoyl)piperidin-4-yl]oxy}phenyl)azetidine-3-carboxamide], 3.62 nM; to `O=C(Nc1ccc(OC2CCN(C(=O)C3CCCC3)CC2)cc1)C1CN(c2cccnc2)C1` [Example 52, N-(4-{[1-(cyclopentylcarbonyl)piperidin-4-yl]oxy}phenyl)-1-(pyridin-3-yl)azetidine-3-carboxamide], 6.28 nM.
On to `CC1(C(=O)N2CCC(Oc3ccc(NC(=O)C4CN(c5cccnc5)C4)cc3)CC2)CCCCC1` [Example 53, N-[4-({1-[(1-methylcyclohexyl)carbonyl]piperidin-4-yl}oxy)phenyl]-1-(pyridin-3-yl)azetidine-3-carboxamide], for which the IC50 was determined as 3.67 nM.
In the case of `O=C(Nc1ccc(OC2CCN(C(=O)c3ccoc3)CC2)cc1)C1CN(c2cccnc2)C1` [Example 54, N-(4-{[1-(furan-3-ylcarbonyl)piperidin-4-yl]oxy}phenyl)-1-(pyridin-3-yl)azetidine-3-carboxamide] it was 3.31 nM.
In the case of `O=C(Nc1ccc(OC2CCN(C(=O)CC(F)(F)F)CC2)cc1)C1CN(c2cccnc2)C1` [Example 55, 1-(pyridin-3-yl)-N-(4-{[1-(3,3,3-trifluoropropanoyl)piperidin-4-yl]oxy}phenyl)azetidine-3-carboxamide] it was 21.1 nM; in that of `CC(=O)N1CCC(Oc2ccc(NC(=O)C3CN(c4cccnc4)C3)cc2)CC1` [Example 56, N-{4-[(1-acetylpiperidin-4-yl)oxy]phenyl}-1-(pyridin-3-yl)azetidine-3-carboxamide], 9.27 nM; in that of `COCC(=O)N1CCC(Oc2ccc(NC(=O)C3CN(c4cccnc4)C3)cc2)CC1` [Example 57, N-(4-{[1-(methoxyacetyl)piperidin-4-yl]oxy}phenyl)-1-(pyridin-3-yl)azetidine-3-carboxamide], 8.75 nM.
In the case of `O=C(Nc1ccc(OC2CCN(C(=O)c3ccsc3)CC2)cc1)C1CN(c2cccnc2)C1` [Example 58, 1-(pyridin-3-yl)-N-(4-{[1-(thiophen-3-ylcarbonyl)piperidin-4-yl]oxy}phenyl)azetidine-3-carboxamide] it was 6.48 nM.
`Cc1ccsc1C(=O)N1CCC(Oc2ccc(NC(=O)C3CN(c4cccnc4)C3)cc2)CC1` [Example 59, N-[4-({1-[(3-methylthiophen-2-yl)carbonyl]piperidin-4-yl}oxy)phenyl]-1-(pyridin-3-yl)azetidine-3-carboxamide] came in with a half-maximal inhibitory concentration (IC50) of 6.14 nM.
Consider `O=C(Nc1ccc(OC2CCN(C(=O)CN3CCOCC3)CC2)cc1)C1CN(c2cccnc2)C1` [Example 60, N-(4-{[1-(morpholin-4-ylacetyl)piperidin-4-yl]oxy}phenyl)-1-(pyridin-3-yl)azetidine-3-carboxamide], for which the IC50 worked out at 5.07 nM.
With `O=C(Nc1ccc(OC2CCN(C(=O)c3cccs3)CC2)cc1)C1CN(c2cccnc2)C1` [Example 61, 1-(pyridin-3-yl)-N-(4-{[1-(thiophen-2-ylcarbonyl)piperidin-4-yl]oxy}phenyl)azetidine-3-carboxamide], it took 3.52 nM to reach half-maximal inhibition (IC50).
As for `Cc1ccc(C(=O)N2CCC(Oc3ccc(NC(=O)C4CN(c5cccnc5)C4)cc3)CC2)s1` [Example 62, N-[4-({1-[(5-methylthiophen-2-yl)carbonyl]piperidin-4-yl}oxy)phenyl]-1-(pyridin-3-yl)azetidine-3-carboxamide], half-maximal inhibition (IC50) was put at 14.2 nM.
To `O=C(Nc1ccc(OC2CCN(C(=O)c3ccco3)CC2)cc1)C1CN(c2cccnc2)C1` [Example 63, N-(4-{[1-(furan-2-ylcarbonyl)piperidin-4-yl]oxy}phenyl)-1-(pyridin-3-yl)azetidine-3-carboxamide] belongs 6.35 nM.
To `Cn1cccc1C(=O)N1CCC(Oc2ccc(NC(=O)C3CN(c4cccnc4)C3)cc2)CC1` [Example 64, N-[4-({1-[(1-methyl-1H-pyrrol-2-yl)carbonyl]piperidin-4-yl}oxy)phenyl]-1-(pyridin-3-yl)azetidine-3-carboxamide] belongs 6.32 nM.
